For 15 compounds, inhibition and CC50 results are on record in patent US20250197373A1, “SMALL MOLECULE COMPOUND OR SALT THEREOF OR SOLVATE OF THEM, GUANINE NUCLEOTIDE-BINDING PROTEIN G(Q) SUBUNIT ALPHA (GNAQ) INHIBITOR CONTAINING THE SAME AND METHOD FOR TREATING AND/OR PREVENTING CANCER” (INDUSTRIAL TECHNOLOGY RESEARCH INSTITUTE, priority 2023, published 2025).

The target in one series is T1, GNAQ (WT) (Homo sapiens, UniProt P50148).
T1 construct: BPS Bioscience (parental reporter cell line) 60406
T1 sequence (P50148 1-359): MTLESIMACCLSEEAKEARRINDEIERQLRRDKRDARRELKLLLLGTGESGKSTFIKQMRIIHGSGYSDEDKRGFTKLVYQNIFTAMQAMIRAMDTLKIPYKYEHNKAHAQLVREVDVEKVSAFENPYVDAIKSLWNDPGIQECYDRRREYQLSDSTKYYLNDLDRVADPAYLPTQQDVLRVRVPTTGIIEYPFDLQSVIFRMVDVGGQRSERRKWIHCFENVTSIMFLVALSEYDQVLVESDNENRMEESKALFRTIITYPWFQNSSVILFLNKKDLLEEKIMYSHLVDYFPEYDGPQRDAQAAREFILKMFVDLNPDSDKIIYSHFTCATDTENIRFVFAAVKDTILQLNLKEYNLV
The series can be described thus: SRE luciferase reporter gene-HEK293 cell line, GNAQ (WT). Format: cell-based. The conditions noted are these: Cell type WT, 20% FBS induction, read-out: GNAQ inhibitory rate; for inhibition at 0.9 µM: analytical concentration 900 nM; for inhibition at 2.7 µM: analytical concentration 2,700 nM; for inhibition at 8.1 µM: analytical concentration 8,100 nM. How it is done: 7.5×10^4 SRE-293-GNAQ (WT) or SRE-293-GNAQ (T96S) cell lines were seeded in a 24-well plate and cultured in a carbon dioxide incubator at 37° C. SRE-293-GNAQ (WT) or SRE-293-GNAQ (T96S) cell lines was derived from additionally transfecting SRE Reporter—HEK293 Recombinant Cell Line (ERK Pathway) (Catalog number: 60406; BPS Bioscience) cells with an expression vector separately expressing GNAQ (WT) or GNAQ (T96S), and screening a stable expression cell line by the antibiotic, geneticin (type number 10131035; Thermo Fisher Scientific). GNAQ (WT) or GNAQ (T96) expression vector was derived from gene synthesis and point mutation modification of GenScript company's customized services.
After 48 hours of culture, the culture medium in the 24-well plate was replaced with minimal essential medium (MEM) containing only 0.1% fetal bovine serum (FBS) and the cells were cultured overnight.
After overnight culture, the compound to be tested was added to the cells and reacted for 2 hours, and the medium at this point was still MEM medium containing only 0.1% fetal bovine serum. After reacting with the compound to be tested for 2 hours, fetal bovine serum at a final concentration of 20% was added to the cells and reacted for at least 4 hours. After the reaction, the supernatant was removed. Next, 100 μL of cell lysis reagent CelLytic M Cell Lysis Reagent (Catalog number: C2978; Sigma) was added to the cells and aspirated repeatedly several times to form a cell lysate solution with the cells. The cell lysate solution was collected in a microcentrifuge tube and centrifuged at a high speed of 14,000 rpm for 5 minutes. After that, 30 μL of supernatant was taken out and placed in a 96-well white plate for luminescence analysis, and 30 μL of firefly luminescence analysis reagent (Catalog No. E1501; Promega) diluted 3-fold was added and mixed well, and then luminescence detection was performed with a plate enzyme immunoassay analyzer (ELISA reader) to evaluate the effect of the compound to be tested on MAPK signaling induced by GNAQ through the expression of the firefly luciferase reporter gene.
In order to confirm the effect of the compounds on MAPK signaling induced by GNAQ, the screened SRE-HEK293 cells capable of expressing exogenous GNAQ (WT) and GNAQ (T96S) genes were subjected to overnight serum starvation, and 2 hours before induction with 20% fetal bovine serum, the compound to be tested (one of Compound 1 to Compound 15 prepared above) was added to the cells, and after serum induction, the expression of the firefly luciferase reporter gene was measured. Through the above steps, the inhibition of the compound to be tested on GNAQ expression could be evaluated through the expression of the reporter gene in cells.

Series [1] can be described thus: Half cytotoxic concentration on normal mammary gland epithelial cells MCF-10A-5E (PrestoBlue). Format: cell-based. The conditions noted are these: human, MCF-10A-5E normal mammary gland epithelial cells, 5 days culture, 10% horse serum, read-out: Non-toxicity (evaluated by CC50). How it is done:
Human normal mammary epithelial cells, MCF-10A-5E cells, were cultured in DMEM/F12K (1:1) medium, wherein Insulin-Transferrin-Selenium (ITS-G) (41400045; Thermo Fisher Scientific) diluted 1,000-fold for use, EGF stock (1 mg/mL) (10605-HNAE; Sino Biological) diluted 2,000-fold for use and Hydrocortisone stock (1 mg/mL) (S1696; Selleck Chemicals) diluted 2,000-fold for use were additionally added to the medium.
5×10^3 of the cells mentioned above were seeded in a 96-well plate and cultured overnight (at least 16 hours) in a carbon dioxide incubator.
After overnight incubation, the supernatant was removed. Next, after 200 μL of cell culture medium (containing 10% horse serum) containing different concentrations of test compound was added to each well of the 96-well plate, the 96-well plate was placed in a 5% carbon dioxide incubator at 37° C. for 5 days further culture. After that, an additional 30 μL of diluted PrestoBlue™ Cell Viability Reagent (Catalog Number: A13261; Thermo Fisher Scientific) (4 μL stock solution and 26 μL culture medium) was added to each well of the 96-well plate and the reaction was continued for further about 1 hour.
Finally, the fluorescence value at the wavelength of 535/615 nm of each well was read with a plate enzyme immunoassay analyzer, and the fatality rate of the compound on normal mammary gland epithelial cells were calculated using the following formula.
Moreover, the half cytotoxic concentration (50% cytotoxic concentration, CC50) of the compound on normal mammary gland epithelial cells was calculated with the fatality rate of compound on normal mammary gland epithelial cells at each concentration through the online half maximal inhibitory concentration (IC50) calculation software, ICso Calculator, provided by AAT Bioquest company on its website (https://www.aatbio.com/tools/ic50-calculator).
Finally, toxicity of the compound on normal mammary gland epithelial cells was evaluated by the calculated half cytotoxic concentration (CC50) of the compound on normal mammary gland epithelial cells.
In addition, the toxicity of the compound on normal mammary gland epithelial cells was evaluated by the half cytotoxic concentration (CC50) of the compound (one of Compound 1 to Compound 15 prepared above) on normal mammary gland epithelial cells through the human normal mammary gland epithelial cell line MCF-T0A-5E.

Each structure is given as a SMILES string. Some results are limits rather than exact numbers.

A word on the CC50: it is the concentration giving 50% cytotoxicity. As for `O=C(Nc1cccc(-c2cc(-c3cccc(C(F)(F)F)c3)ncn2)c1)Nc1cc(Cl)nc(Cl)c1` [Compound 14], on GNAQ (WT), the inhibition at 0.9 µM is less than 10%, the inhibition at 2.7 µM is 10 to 39% and the inhibition at 8.1 µM is 40 to 70%. Besides, in series [1], the 50% cytotoxic concentration (CC50) at 5 days lay within 10 to 20 µM.

In the case of `O=C(Nc1cccc(-c2ccnc(-c3cccc(C(F)(F)F)c3)n2)c1)Nc1cc(Cl)nc(Cl)c1` [Compound 2], at GNAQ (WT), the inhibition at 0.9 µM is 10 to 39%, the inhibition at 2.7 µM was in the range of 10 to 39% and the inhibition at 8.1 µM was greater than 70%. The CC50 at 5 days in series [1] lay in the range of 10 to 20 µM.

On to `O=C(Nc1ccc(-c2nc(-c3ccccc3)ncc2Cl)cc1)Nc1cc(Cl)nc(Cl)c1` [Compound 15], for which, on GNAQ (WT), the inhibition at 0.9 µM was less than 10%, the inhibition at 2.7 µM lay in the range of 10 to 39% and the inhibition at 8.1 µM was greater than 70%. In series [1], the CC50 at 5 days lay within 10 to 20 µM.

Consider `O=C(Nc1cccc(-c2cccc(-c3ccncc3)n2)c1)Nc1cc(Cl)nc(Cl)c1` [Compound 13], for which, on GNAQ (WT), the inhibition at 0.9 µM fell in the range of 10 to 39%, the inhibition at 2.7 µM was 40 to 70% and the inhibition at 8.1 µM was greater than 70%. Also, the CC50 at 5 days in series [1] was greater than 20 µM.

`O=C(Nc1ccc(-c2ccnc(-c3ccncc3)n2)cc1)Nc1ccc(Cl)c(C(F)(F)F)c1` [Compound 6]: at GNAQ (WT), the inhibition at 0.9 µM was less than 10%, the inhibition at 2.7 µM was in the range of 10 to 39% and the inhibition at 8.1 µM was 10 to 39%. The half-maximal cytotoxic concentration (CC50) at 5 days in series [1] lay in the range of 10 to 20 µM.

Regarding `O=C(Nc1ccc(-c2cccc(-c3ccncc3)n2)cc1)Nc1ccc(Cl)c(C(F)(F)F)c1` [Compound 12], at GNAQ (WT), the inhibition at 0.9 µM is 10 to 39%, the inhibition at 2.7 µM fell in the range of 10 to 39% and the inhibition at 8.1 µM lay in the range of 40 to 70%. The 50% cytotoxic concentration (CC50) at 5 days in series [1] is 10 to 20 µM.

Turning to `O=C(Nc1cccc(-c2ccnc(-c3ccc(F)c(F)c3)n2)c1)Nc1cc(Cl)nc(Cl)c1` [Compound 4], at GNAQ (WT), the inhibition at 0.9 µM is less than 10%, the inhibition at 2.7 µM lay in the range of 10 to 39% and the inhibition at 8.1 µM fell in the range of 40 to 70%. For the same compound, the CC50 at 5 days in series [1] fell in the range of 5 to 10 µM.

Regarding `FC(F)(F)c1cccc(-c2cccc(-c3ccc(NC(=S)Nc4cc(Cl)nc(Cl)c4)cc3)n2)c1` [Compound 10], at GNAQ (WT), the inhibition at 0.9 µM fell in the range of 10 to 39%, the inhibition at 2.7 µM was 40 to 70% and the inhibition at 8.1 µM is greater than 70%. The half-maximal cytotoxic concentration (CC50) at 5 days in series [1] was greater than 20 µM.

As to `O=C(Nc1ccc(-c2ccnc(-c3cccc(C(F)(F)F)c3)n2)cc1)Nc1ccc(Cl)c(C(F)(F)F)c1` [Compound 8], at GNAQ (WT), the inhibition at 0.9 µM was less than 10%, the inhibition at 2.7 µM is less than 10% and the inhibition at 8.1 µM was less than 10%. In addition, the CC50 at 5 days in series [1] was in the range of 10 to 20 µM.

On to `N#Cc1cccc(-c2cccc(-c3ccc(NC(=S)Nc4cc(Cl)nc(Cl)c4)cc3)n2)c1` [Compound 11], for which, on GNAQ (WT), the inhibition at 0.9 µM lay within 10 to 39%, the inhibition at 2.7 µM was in the range of 40 to 70% and the inhibition at 8.1 µM was greater than 70%. The cytotoxic concentration (CC50) at 5 days in series [1] was greater than 20 µM.

In the case of `O=C(Nc1ccc(-c2cccc(-c3cccc(C(F)(F)F)c3)n2)cc1)Nc1cc(Cl)nc(Cl)c1` [Compound 9], on GNAQ (WT), the inhibition at 0.9 µM is 10 to 39%, the inhibition at 2.7 µM fell in the range of 10 to 39% and the inhibition at 8.1 µM is greater than 70%. The cytotoxic concentration (CC50) at 5 days in series [1] lay in the range of 10 to 20 µM.

Take `N#Cc1cccc(-c2nccc(-c3cccc(NC(=O)Nc4cc(Cl)nc(Cl)c4)c3)n2)c1` [Compound 3]: at GNAQ (WT), the inhibition at 0.9 µM was 10 to 39%, the inhibition at 2.7 µM lay in the range of 10 to 39% and the inhibition at 8.1 µM is greater than 70%. Further, the CC50 at 5 days in series [1] fell in the range of 10 to 20 µM.

Regarding `O=C(Nc1cccc(-c2ccnc(-c3cccc(C(F)(F)F)c3)n2)c1)c1cc(Cl)nc(Cl)c1` [Compound 5], on GNAQ (WT), the inhibition at 0.9 µM is less than 10%, the inhibition at 2.7 µM fell in the range of 10 to 39% and the inhibition at 8.1 µM was less than 10%. The half-maximal cytotoxic concentration (CC50) at 5 days in series [1] was greater than 20 µM.

For the compound `O=C(Nc1cccc(-c2ccnc(-c3ccnc(Cl)c3)n2)c1)Nc1cc(Cl)nc(Cl)c1` [Compound 1], on GNAQ (WT), the inhibition at 0.9 µM is less than 10%, the inhibition at 2.7 µM is 10 to 39% and the inhibition at 8.1 µM was greater than 70%. The CC50 at 5 days in series [1] was greater than 20 µM.

On to `O=C(Nc1ccc(-c2ccnc(-c3cccc(C(F)(F)F)c3)n2)cc1)Nc1cc(Cl)nc(Cl)c1` [Compound 7], for which, on GNAQ (WT), the inhibition at 0.9 µM was less than 10%, the inhibition at 2.7 µM was less than 10% and the inhibition at 8.1 µM lay within 10 to 39%. Besides, the CC50 at 5 days in series [1] is 10 to 20 µM.
